Test system: human hepatoma Huh-7 cell line harboring a HCV replicon
Test: HCV replicon assay (inhibition of viral replication, luciferase)
Assay type: cell-based
Settings: Hepatitis C virus, 72 h; 2 μM; Huh-7 HCV replicon cells, 3 days incubation; inhibition of viral replication; read-out: % inhibition at 2 μM
Method: The anti-HCV activity of the compounds of this invention was tested in a human hepatoma Huh-7 cell line harboring a HCV replicon. The assay comprised the following steps:
Step 1: Compound Preparation and Serial Dilution.
Serial dilution was performed in 100% DMSO in a 384-well plate. A solution containing a compound at 225-fold concentration of the starting final serial dilution concentration was prepared in 100% DMSO and 15 uL added to the pre-specified wells in column 3 or 13 of a polypropylene 384-well plate. The rest of the 384-well plate was filled with 10 uL 100% DMSO except for columns 23 and 24, where 10 uL of 500 uM a HCV protease inhibitor (ITMN-191) in 100% DMSO was added. The HCV protease inhibitor was used a control of 100% inhibition of HCV replication. The plate was then placed on a Biomek FX Workstation to start the serial dilution. The serial dilution was performed for ten cycles of 3-fold dilution from column 3 to 12 or from column 13 to 22.
Step 2: Cell Culture Plate Preparation and Compound Addition
To each well of a black polypropylene 384-well plate, 90 μL of cell media containing 1600 suspended Huh-7 HCV replicon cells was added with a Biotek uFlow Workstation. A volume of 0.4 μL of the compound solution was transferred from the serial dilution plate to the cell culture plate on a Biomek FX Workstation. The DMSO concentration in the final assay condition was 0.44%. The plates were incubated for 3 days at 37° C. with 5% CO2 and 85% humidity.
Step 3: Detection of Cytotoxicity and Inhibition of Viral Replication
a) Assessment of cytotoxicity: The media in the 384-well cell culture plate was aspirated with a Biotek EL405 plate-washer. A volume of 50 μL of a solution containing 400 nM Calcein AM in 100% PBS was added to each well of the plate with a Biotek uFlow Workstation. The plate was incubated for 30 minutes at room temperature before the fluorescence signal ([…]) was measured with a Perkin Elmer Envision Plate Reader.
b) Assessment of inhibition of viral replication: The calcein-PBS solution in the 384-well cell culture plate was aspirated with a Biotek EL405 plate-washer. A volume of 20 μL of Dual-Glo luciferase buffer (Promega, Dual-Glo Luciferase Assay Reagent, cat. #E298B) was added to each well of the plate with a Biotek uFlow Workstation. The plate was incubated for 10 minutes at room temperature. A volume of 20 μL of a solution containing 1:100 mixture of Dual-Glo Stop & Glo substrate(Promega, Dual-Glo Luciferase Assay Reagent, cat. #E313B) and Dual-Glo Stop & Glo buffer (Promega, Dual-Glo Luciferase Assay Reagent, cat. #E314B) was then added to each well of the plate with a Biotek uFlow Workstation. The plate was incubated at room temperature for 10 minutes before the luminescence signal was measured with a Perkin Elmer Envision Plate Reader.
The percent cytotoxicity was determined by calcein AM conversion to fluorescent product. The average fluorescent signal from the DMSO control wells were defined as 100% nontoxic. The individual fluorescent signal from testing compound treated well was divided by the average signal from DMSO control wells and then multiplied by 100% to get the percent viability. The percent anti-HCV replication activity was determined by the luminescence signal from the testing well compared to DMSO controls wells. The background signal was determined by the average luminescence signal from the HCV protease inhibitor treated wells and was subtracted from the signal from the testing wells as well as the DMSO control wells. Following 3-fold serial dilutions, the EC50 and CC50 values were calculated by fitting % inhibition at each concentration to the following equation: % inhibition=100%[(EC50/[l])^b+1]
Where b is Hill's coefficient. See, for reference, Hill, A. V., The Possible Effects of the Aggregation of the Molecules of Hæmoglobin on its Dissociation Curves, J. Physiol. 40: iv-vii. (1910). […]

Q: `CC(C)(C)C#Cc1cc(N(C(=O)[C@H]2CC[C@H](C)CC2)C2CCN(C(=O)O[C@@H]3CNC(=O)C3)CC2)c(C(=O)O)s1` [Compound 56, 4-[[2-carboxy-5-(3,3-dimethyl-but-1-ynyl)-thiophen-3-yl]-(4-trans-methyl-cyclohexanecarbonyl)-amino]-piperidine-1-carboxylic acid 5-oxo-pyrrolidin-3-(S)-yl ester] was tested. Which inhibition at 2 µM did it give?
A: 92.8%

Q: How did the inhibition at 2 µM turn out when `CC(C)(C)C#Cc1cc(N(C(=O)[C@H]2CC[C@H](C)CC2)C2CCN(C(=O)O[C@H]3CCNC3=O)CC2)c(C(=O)O)s1` [Compound 57, 4-[[2-carboxy-5-(3,3-dimethyl-but-1-ynyl)-thiophen-3-yl]-(4-methyl-cyclohexanecarbonyl)-amino]-piperidine-1-carboxylic acid 2-oxo-pyrrolidin-3-(S)-yl ester] was run?
A: 78.2%

Q: With `C[C@@H](CCNC(=O)O[C@H]1CO[C@H]2OCC[C@H]21)N(c1cc(C#CC(C)(C)C)sc1C(=O)O)C(=O)[C@H]1CC[C@H](C)CC1` [Compound 64, 5-(3,3-Dimethyl-but-1-ynyl)-3-[[3-(hexahydro-furo[2,3-b]furan-3-yloxycarbonylamino)-1-(S)-methyl-propyl]-(trans-4-methyl-cyclohexanecarbonyl)-amino]-thiophene-2-carboxylic acid] as the compound, how does the inhibition at 2 µM read?
A: 100%

Q: How did the inhibition at 2 µM turn out when `C[C@@H](CCNC(=O)O[C@@H]1CCOC1)N(c1cc(C#CC(C)(C)C)sc1C(=O)O)C(=O)[C@H]1CC[C@H](C)CC1` [Compound 65, 5-(3,3-dimethyl-but-1-ynyl)-3-[[trans-4-methyl-cyclohexanecarbonyl)-[1-(S)-methyl-3-(tetrahydrofuran-3-yloxycarbonylamino)-propyl]-amino]-thiophene-2-carboxylic acid] was run?
A: 99.9%

Q: For `CC(C)(C)C#Cc1cc(N(C(=O)[C@H]2CC[C@H](C)CC2)C2CCC(NC(=O)O[C@H]3CO[C@H]4OCC[C@H]43)CC2)c(C(=O)O)s1` (stereo partly drawn) [Compound 66, 5-(3,3-Dimethyl-but-ynyl)-3-[[4-(hexahydro-furo[2,3-b]furan-3-yloxycarbonylamino)-cyclohexyl]-(trans-4-methyl-cyclohexanecarbonyl)-amino]-thiophene-2-carboxylic acid], which inhibition at 2 µM is on record?
A: 99.9%

Q: With `CC(C)(C)C#Cc1cc(N(C(=O)[C@H]2CC[C@H](C)CC2)[C@H]2CCN(C(=O)OC3(C)CCNC3)C2)c(C(=O)O)s1` (stereo partly drawn) [Compound 68, 3-(S)-[[2-Carboxy-5-(3,3-dimethyl-but-1-ynyl)-thiophen-3-yl]-(trans-4-methylcyclohexanecarbonyl)-amino]-pyrrolidine-1-carbocylic-acid-3-methyl-pyrrolidin-3-yl-ester] as the compound, how does the inhibition at 2 µM read?
A: 98.5%

Q: How did the inhibition at 2 µM turn out when `CC(C)(C)C#Cc1cc(N(C(=O)[C@H]2CC[C@H](C)CC2)[C@H]2CCN(C(=O)OC3(C)CN(C(=O)OC(C)(C)C)C3)C2)c(C(=O)O)s1` [Compound 69, 3-[[2-carboxy-5-(3,3-dimethyl-but-1-ynyl)-thiophen-3-yl]-(trans-4-methyl-cyclohexanecarbonyl)-3-(S)-amino]-pyrrolidine-1-carboxylic acid 1-tert-butoxycarbonyl-3-methyl-azetidin-3-yl ester] was run?
A: 99.5%

Q: `CC(C)(C)C#Cc1cc(N(C(=O)[C@H]2CC[C@H](C)CC2)[C@H]2CCN(C(=O)OC3CCS(=O)(=O)C3)C2)c(C(=O)O)s1` (stereo partly drawn) [Compound 70, 3-[[2-carboxy-5-(3,3-dimethyl-but-1-ynyl)-thiophene-3-yl]-(trans-4-methylcyclohexanecarbonyl)-3-(S)-amino]-pyrrolidine-1-carboxylic acid 1,1-dioxo-tetrahydro-1λ^6-thiophene-3-yl ester] was tested. Which inhibition at 2 µM did it give?
A: 99.1%

Q: How did the inhibition at 2 µM turn out when `CC(C)(C)C#Cc1cc(N(C(=O)[C@H]2CC[C@H](C)CC2)C2CCN(C(=O)OC3(C)CCN(C(=O)OC(C)(C)C)C3)CC2)c(C(=O)O)s1` (stereo partly drawn) [Compound 71] was run?
A: 95.1%

— US8884030B2, “Inhibitors of Flaviviridae viruses” (priority 2010, dated 2014)
